The test system of data set [1] is Protein-ss-Cys in plasma from a normal donor. As to the kind of experiment: Protein-ss-Cys in plasma treated with two physiologically relevant oxidants. More on the design: species or system human. The following applies: 37° C. for 30 min, with increasing oxidant concentration. As for the experimental part:
A. Cys containing species in normal donors' plasma (n=6); B. Plasma from a nomal donor treated with hydrogen peroxide (H2O2) and hypochlorous acid (HOCl), two oxidants commonly released from activated cells and neutrophils of patients with oxidative stress. Plasma was reaction with the indicated concentration at 37° C. for 30 min and followed by methanol extraction and analysis by LC-MS/MS-MRM as described in Example 1.

For the next data set, the system named is Cys disulfides in plasma. As to the kind of experiment: Cys and Cys disulfide changes in plasma from a patient with SCD before and after NAC infusion (LC-MS/MS-MRM).
Data set [2] deals with NAC, Cys species and GSH in plasma/whole blood/RBC. As to the kind of experiment: Time course of NAC, Cys containing species and GSH in plasma/whole blood from a patient with SCD before and after NAC treatment.
Setting [3] is: after NAC infusion for 1 hr at 150 mg/kg vs baseline.

Consider 3 compounds from patent US10705093B2, “Determination of small-molecule thiols and disulfides: protein bound cys and total cysteine as biomarkers of oxidative stress” (Bloodworks, priority 2014, dated 2020).

As to `OO` [H2O2, hydrogen peroxide], the “Change of Protein-ss-Cys in plasma exposed to oxidant” value in data set [1] is listed as “increased”.
Same read-out and setting: under `OCl` [HOCl, hypochlorous acid] stands “increased”.
For `CC(=O)N[C@@H](CS)C(=O)O` [NAC, N-Acetyl Cysteine], the “NAC-ss-Cys mixed disulfide in plasma” value with Cys disulfides in plasma (after NAC infusion for 1 hr at 150 mg/kg) is listed as “Detection of NAC-ss-Cys”. Further, in the data set on Cys disulfides in plasma (setting [3]), the “Change of Cystine in plasma” value is given as “large decrease”, the “Change of Protein-ss-Cys in plasma” value was “large decrease” and the “Change of total Cys in plasma” value is “no significant changes”. Besides, the “Free Cys in plasma after NAC infusion” value in the data set with Cys disulfides in plasma (after NAC infusion for 1 hr at 150 mg/kg, baseline 7 μM) is “over 170 μM”. The “NAC level in plasma” value in data set [2] (24 hr time point) was “almost not detectable”. Also, in data set [2] (24 hr time point compared to before treatment), the “Increase of GSH level” value was found to be 13%. Moreover, in data set [2] (RBC fraction, after NAC infusion vs before), the “Increase of free Cys in the red blood cell (RBC) fraction” value is “over 10 fold”. The “Free Cys in the red blood cell (RBC) fraction after NAC” value in data set [2] (RBC fraction, after NAC infusion, before 2.3 μM) is 31 µM. For the same compound, in data set [2] (after NAC infusion vs Pre), the “Change of free Cys in plasma” value was “greatly increased”, the “Change of p-ss-Cys” value is recorded as “decreased sharply” and the “Change of total small molecular weight thiol (st-Cys)” value is reported as “greatly increased”. In addition, the NAC half time result in data set [2] (inferred from the 24 hr level) is “short”. In addition, the “Fraction of NAC oxidized” value in data set [2] (plasma, at 1 hr (right after NAC infusion)) is recorded as “over 50%”. The “Free Cys in whole blood after NAC” value in data set [2] (whole blood, after NAC infusion, before 13 μM) amounted to 170 µM.
